Reference: publication PMC5640650, “NatD promotes lung cancer progression by preventing histone H4 serine phosphorylation to activate Slug expression” (Nature Communications, 2017)

Experiments:
[1] = system: LLC cells; experiment: Transwell migration and invasion assay, LLC cells; assay type: cell-based, murine; settings: LLC cells in vitro, vs Scr
[2] = system: H1299 cells; experiment: qPCR and western blot of EMT and proliferation genes, H1299 cells; assay type: cell-based, human
Source text: Fig. 4 Silencing NatD suppresses cancer cell EMT by downregulating Slug. a Representative phase contrast images of Scr and NatD-KD H1299 cells treated with TGF-β1. Data are representative of three independent experiments. Scale bar, 100 μm. b Quantitative real-time PCR analysis of mRNA levels of indicated key EMT-related genes in Scr and NatD-KD H1299 cells normalized to GAPDH in the absence or presence of TGF-β1. Results are shown as mean ± s.d. of three independent experiments. Two-tailed Student’s t-test was used. **P < 0.01 or *P < 0.05 compared with the indicated control. c Western blot analysis of indicated protein levels in Scr and NatD-KD H1299 cells in the absence or presence of TGF-β1. GAPDH served as a loading control. Data are representative of three independent experiments. d Immunofluorescence analysis of Scr and NatD-KD H1299 cells in the absence or presence of TGF-β1 stained for E-cadherin and N-cadherin. Data are representative of three independent experiments. Scale bar, 20 μm. Migration (e, top) and invasion (f, top) of Scr cells, NatD-KD cells, and NatD-KD cells with enforced Slug expression (NatD-KD + Slug). (bottom panels) Cells were counted in at least four random microscope fields (×100 magnification) for the corresponding assays; migration and invasion are expressed as a percentage of control. Results are shown as mean ± s.d. of three independent experiments. Two-tailed Student’s t-test was used. **P < 0.01 compared with the indicated control. g Quantitative real-time PCR analysis of the mRNA levels of NatD and indicated key EMT-related genes (normalized to GAPDH) in Scr cells, NatD-KD cells, and NatD-KD + Slug cells. Results are shown as mean ± s.d. of three independent experiments. Two-tailed Student’s t-test was used. **P < 0.01 or *P < 0.05 compared with Scr or indicated control. h Western blot analysis of indicated protein levels in Scr cells, NatD-KD cells, and NatD-KD + Slug cells. GAPDH served as a loading control. Data are representative of three independent blots. i Pearson correlation scatter plot of the H score of Slug and NatD in human lung carcinoma (n = 147); r = 0.6672, P < 0.0001
Cellular proteins were extracted by RIPA lysis buffer at high salt concentration (420 mM NaCl), and western blot analysis was performed in accordance with standard protocols. Scans of enhanced chemiluminescence (ECL) films showing uncropped blots are presented in Supplementary Fig. 10. The following antibodies were used for western blotting: NatD (Abcam; ab106408, 1:1000), GAPDH (MBL International; M171-3, 1:5000), Vimentin (BD Biosciences; 550513, 1:1000), E-cadherin (BD Biosciencs; 610181, 1:1000), N-cadherin (Abcam; ab76057, 1:1000), Slug (Abcam; ab27568, 1:500), Zeb1 (ABclonal; A5600, 1:1000), Zeb2 (Abcam; ab138222, 1:500), Twist1 (ABclonal; A7314, 1:1000), Snail (Santa Cruz Biotechnology; sc-271977, 1:500), Histone H4 (PTM Biolabs; PTM-1004, 1:2000), Histone H3(Genscript; A01502, 1:1000), H4K5ac (Millipore; CS204381, 1:1000), H4K8ac (Millipore; CS204357, 1:1000), H4K12ac (Millipore; 06-1352, 1:1000), H4R3me2a (Active Motif; 39705, 1:1000), H4R3me2s (Abcam; ab5823, 1:1000), H4S1ph (Abcam; ab14723, 1:1000), CK2α (Abcam; ab70774, 1:2000), Lamin A/C (Genscript; A01455, 1:2000), and Hsp70 (Genscript; A01236, 1:1000). Peptide pulldown assays were performed according to standard protocols, [44]. Briefly, we coupled streptavidin beads to 2 μg C-terminal biotin-tagged 31-mer N-terminal peptides of histone H4 and to acetylated H4 (Nt-ac-H4), as well as to C-terminal biotin-tagged 20-mer N-terminal peptides of non-acetylated histone H3. The resulting streptavidin-coupled peptides were incubated with H1299 cellular extracts prepared with high salt extraction (420 mM NaCl). We eluted specifically bound protein from stringently washed beads, separated the samples by SDS-PAGE, and visualized proteins by western blot with anti-CK2α antibody. […]

NatD-KD2: Human NatD shRNA KD2: 5′-GGTTGAATGTCTCCATTGA-3′, lentiviral (shRNA lentiviral)
migratory and invasive capabilities [1]: significantly decreased | expression of E-cadherin ([2]; basal, knockdown vs Scr): increased the expression | expression of N-cadherin and Vimentin ([2]; basal, knockdown vs Scr): reduced the expression | expression of Slug ([2]; basal, knockdown vs Scr): significantly repressed | expression of Twist1, Snail, Zeb1, or Zeb2 ([2]; basal, knockdown vs Scr): not changed | changes of E-cadherin, N-cadherin, Vimentin and Slug expression with TGF-β1 ([2]; presence of TGF-β1 relative to basal): blocked changes of expression levels | expression of proliferation- and cell cycle-related genes (except CCND2) ([2]; qPCR, vs Scr): did not affect
